Source: patent publication US12122787B2, “Fused pyridone compound, and preparation method therefor and use thereof” (SHANGHAI JEMINCARE PHARMACEUTICALS CO., LTD, priority 2019, dated 2024)
Like-named read-outs stand apart in the source and are kept apart here.

What was measured:
Type in all cases: cell-based
[1] = tested on: phosphorylated ERK (Thr202/Tyr204) in NCI-H358 cells expressing mutant RAS(G12C); assay: Inhibition of RAS-mediated signal transduction: phosphorylated ERK ELISA in NCI-H358 cells; details: NCI-H358 cells, 2 hours of treatment, pERK normalized by Janus Green B, read-out: p-ERK IC50 (NCI H358)
Description: The cells were treated with or without the compound of the present disclosure (dimethyl sulfoxide, DMSO), and the final concentration of DMSO was guaranteed to be 0.5%. After 2 hours of treatment, the medium was removed and 4% paraformaldehyde (Beyotime catalog number E672002-0100) was added and left to stand for 20 minutes. Cells were washed with PBS after fixation and incubated with precooled methanol for 10 min to permeabilize the cell membrane.
The level of phosphorylated ERK was detected using an enzyme linked immunosorbent assay (ELISA) method. […] The plates were washed 5 times with PBS containing 0.05% Tween 20. […] The reaction was stopped by adding 1 mol/L H2SO4, and the OD value was read at 450 nm by EnVision (PerkinElmer).
The total number of cells per well was detected by Janus Green B staining method. After detecting the level of phosphorylated ERK, the 96-well plate was washed with PBS until colorless, and 0.1% Janus Green B (Abcam catalogue number ab111622) was added to incubate for 10 minutes. After the 96-well plate was washed with double distilled water, 0.1 mol/L HCl was added, then the mixture was shaked and incubated for 10 minutes. The OD value was read at 595 nm by EnVision (PerkinElmer).
The signal of pERK (Thr202/Tyr204) was normalized by the signal value of Janus Green B, and the inhibition percentage after drug treatment relative to DMSO reference was calculated. The percentage values were fitted by a four-parameter dose-response curve and generated IC50 values.

[2] = tested on: NCI-H358 cells expressing KRAS-G12C; assay: Growth inhibition of tumor cell line expressing KRAS-G12C (Cell Titer Glo), NCI-H358
Description: (§1) The ability of the compounds of the present disclosure to inhibit the growth of cells expressing KRAS-G12C was evaluated by measuring the cell viability and calculating the GI50 values.
(§2) The tumor cell line NCI-H358 (ATCC catalogue number CRL-5807) expressing KRAS-G12C was cultured in RPMI medium supplemented with 10% fetal bovine serum and penicillin/streptomycin, and the tumor cell line MIA PaCa2 (ATCC CRL-1420) expressing KRAS-G12C was cultured in DMEM medium supplemented with 10% fetal bovine serum, 2.5% horse serum, and penicillin/streptomycin.
(§3) Cells NCI-H358 and MIA-Paca2 were inoculated into black transparent bottom 384-well plate (PerkinElmer catalogue number 6007460) with cell density of 1000 and 800 respectively, and the cells were allowed to adhere to the wall overnight (8-12 hours). After the cells adhered to the wall, the experimental group was added with the compound of the present disclosure diluted 5 times the concentration of the working solution (final concentration containing 0.1% dimethyl sulfoxide, i.e. DMSO); the control group was added with the same dilution as the experimental group (final concentration containing 0.1% DMSO). After 72 hours, Cell Titer Glo reagent (Promega catalogue number G7572) was used to detect ATP content according to the instruction method to determine the amount of cell proliferation. The brief operation steps were as follows: the cell plate was taken out and kept at normal temperature for equilibrium for 30 minutes; Cell Titer Glo reagent with the same volume as the culture was added; the culture plate was placed on a shaker for shaking and cracking for 2 minutes; the culture plate was left to stand at room temperature for 10 minutes; then the light signal value was read by microplate reader EnVision (PerkinElmer).
(§4) Data from all experimental groups were used to calculate the respective percent inhibition using the DMSO group, and the GI50 was calculated using the data processing software GraphPad to analyze the inhibition rates produced by the 9 compound dose concentrations diluted at ⅓-fold ratio.

[3] = tested on: MIA PaCa2 cells expressing KRAS-G12C; assay: Growth inhibition of tumor cell line expressing KRAS-G12C (Cell Titer Glo), MIA PaCa2; details: MIA-Paca2, 72 hours
Description: as §1, §2, §3, §4

SMILES	GI50 ([2]; NCI-H358, 72 hours)	GI50 [3]	IC50 [1]	IC50 ([1]; Homo sapiens, NCI-H358, 2 h)	also measured
C=CC(=O)N1C[C@@H]2COc3c(c4cc(F)c(-c5c(O)cccc5F)c(F)c4n(-c4c(C)ccnc4C(C)C)c3=O)N2C[C@H]1C (atropisomer, axis not shown) [Compound 3B-1]	27 nM	166 nM	26 nM		
C=CC(=O)N1C[C@@H]2C(=O)N(C)c3c(c4cc(F)c(-c5c(O)cccc5F)nc4n(-c4ccccc4C(C)C)c3=O)N2C[C@H]1C (atropisomer, axis not shown) [Compound 7B]				98 nM	GI50 ([2]; Homo sapiens, NCI-H358, 72 h): 148 nM; GI50 ([3]; Homo sapiens, MIA PaCa-2, 72 h): 328 nM
C=CC(=O)N1C[C@@H]2CN(C)c3c(c4cc(F)c(-c5c(O)cccc5F)c(F)c4n(-c4c(C)ccnc4C(C)C)c3=O)N2C[C@H]1C (atropisomer, axis not shown) [Compound 16A-1]			11 nM		GI50 ([2]; Homo sapiens, NCI-H358, 72 h): 12 nM; GI50 ([3]; Homo sapiens, MIA PaCa-2, 72 h): 55 nM
C=CC(=O)N1C[C@@H]2COc3c(c4cc(Cl)c(-c5c(O)cccc5F)c(F)c4n(-c4c(C)ccnc4C(C)C)c3=O)N2C[C@H]1C (atropisomer, axis not shown) [Compound 18A-2]	12 nM	24 nM	13 nM		
C=CC(=O)N1C[C@@H]2C(=O)N(CCN(C)C)c3c(c4cc(Cl)c(-c5c(O)cccc5F)c(F)c4n(-c4c(C)ccnc4C(C)C)c3=O)N2C[C@H]1C (atropisomer, axis not shown) [Compound 26A]				203 nM	GI50 ([2]; Homo sapiens, NCI-H358, 72 h): 152 nM; GI50 ([3]; Homo sapiens, MIA PaCa-2, 72 h): 724 nM
C=CC(=O)N1C[C@@H]2C(=O)N(CCN(C)C)c3c(c4cc(Cl)c(-c5c(F)cccc5OC)c(F)c4n(-c4c(C)ccnc4C(C)C)c3=O)N2C[C@H]1C (atropisomer, axis not shown) [Compound 27A]				87 nM	GI50 ([2]; Homo sapiens, NCI-H358, 72 h): 147 nM; GI50 ([3]; Homo sapiens, MIA PaCa-2, 72 h): 152 nM
C=CC(=O)N1C[C@@H]2CN(CCCO)c3c(c4cc(F)c(-c5c(O)cccc5F)c(F)c4n(-c4c(C)ccnc4C(C)C)c3=O)N2C[C@H]1C (atropisomer, axis not shown) [Compound 35A-1]	163 nM	2600 nM	313 nM		
C=CC(=O)N1C[C@@H]2C(=O)N(C)c3c(c4cc(Cl)c(-c5c(O)cccc5F)c(F)c4n(-c4c(C)ncnc4C(C)C)c3=O)N2C[C@H]1C (atropisomer, axis not shown) [Compound 49A-1]	3 nM	7 nM	5 nM		
C=CC(=O)N1C[C@@H]2C(=O)N(CCN(C)C)c3c(c4cc(Cl)c(-c5c(O)cccc5F)c(F)c4n(-c4c(CC)ccnc4C(C)C)c3=O)N2C[C@H]1C (atropisomer, axis not shown) [Compound 54B-1]			12 nM		GI50 ([2]; Homo sapiens, NCI-H358, 72 h): 7 nM; GI50 ([3]; Homo sapiens, MIA PaCa-2, 72 h): 6 nM
C=CC(=O)N1C[C@@H]2COc3c(c4cc(F)c(-c5c(O)cccc5F)nc4n(-c4c(C)ccnc4C(C)C)c3=O)N2C[C@H]1C (single isomer, unassigned) [Compound 5A]	89 nM	252 nM	61 nM		
C=CC(=O)N1C[C@@H]2COc3c(c4cc(F)c(-c5c(O)cccc5F)nc4n(-c4c(C)ccnc4C(C)C)c3=O)N2C[C@H]1C (single isomer, unassigned) [Compound 5B]	210 nM	3130 nM	128 nM		
C=CC(=O)N1C[C@@H]2COc3c(c4cc(F)c(-c5c(F)cccc5OC)nc4n(-c4c(C)ccnc4C(C)C)c3=O)N2C[C@H]1C (single isomer, unassigned) [Compound 6A]			65 nM		GI50 ([2]; Homo sapiens, NCI-H358, 72 h): 41 nM; GI50 ([3]; Homo sapiens, MIA PaCa-2, 72 h): 230 nM
C=CC(=O)N1C[C@@H]2C(=O)N(CCN(C)C)c3c(c4cc(F)c(-c5c(O)cccc5F)c(F)c4n(-c4c(C)ccnc4C(C)C)c3=O)N2C[C@H]1C [Compound 24A]				3820 nM	
C=CC(=O)N1C[C@@H]2C(=O)N(C)c3c(c4cc(F)c(-c5ccccc5F)c(F)c4n(-c4c(C)ccnc4C(C)C)c3=O)N2C[C@H]1C [Compound 31A]				2160 nM	
C=CC(=O)N1C[C@@H]2C(=O)N(C)c3c(c4cc(F)c(-c5c(N)cccc5F)c(F)c4n(-c4c(C)ccnc4C(C)C)c3=O)N2C[C@H]1C [Compound 33A-1]				717 nM	
C=CC(=O)N1C[C@@H]2CN(CCCN(C)C)c3c(c4cc(F)c(-c5c(O)cccc5F)c(F)c4n(-c4c(C)ccnc4C(C)C)c3=O)N2C[C@H]1C [Compound 34A]				503 nM	
C=CC(=O)N1C[C@@H]2CN(CC(=O)OC)c3c(c4cc(F)c(-c5c(O)cccc5F)c(F)c4n(-c4c(C)ccnc4C(C)C)c3=O)N2C[C@H]1C [Compound 38A-1]			242 nM		
C=CC(=O)N1C[C@@H]2CN(CC(=O)OC)c3c(c4cc(F)c(-c5c(O)cccc5F)c(F)c4n(-c4c(C)ccnc4C(C)C)c3=O)N2C[C@H]1C [Compound 38B-1]			1130 nM		
C=CC(=O)N1C[C@@H]2CN(CC(=O)O)c3c(c4cc(F)c(-c5c(O)cccc5F)c(F)c4n(-c4c(C)ccnc4C(C)C)c3=O)N2C[C@H]1C [Compound 39A-1]			1640 nM		
C=CC(=O)N1C[C@@H]2CN(CC(=O)O)c3c(c4cc(F)c(-c5c(O)cccc5F)c(F)c4n(-c4c(C)ccnc4C(C)C)c3=O)N2C[C@H]1C [Compound 39A]			798 nM		
C=CC(=O)N1C[C@@H]2C(=O)N(C3CN(C)C3)c3c(c4cc(F)c(-c5c(F)cccc5OC)c(F)c4n(-c4c(C)ccnc4C(C)C)c3=O)N2C[C@H]1C [Compound 43]				1920 nM	
C=CC(=O)N1C[C@@H]2COc3c(c4cc(Cl)c(-c5c(O)cccc5F)c(F)c4n(C[C@@H]4CCCN4C)c3=O)N2C[C@H]1C [Compound 45A]				1540 nM	
C=CC(=O)N1C[C@@H]2C(=O)N(C)c3c(c4cc(F)c(-c5ccccc5O)c(F)c4n(-c4c(C)ccnc4C(C)C)c3=O)N2C[C@H]1C [Compound 46A]				2050 nM	
C=CC(=O)N1C[C@@H]2C(=O)N(C)c3c(c4cc(F)c(-c5c(C)ccc6[nH]nc(C7CC7)c56)c(F)c4n(-c4c(C)ccnc4C(C)C)c3=O)N2C[C@H]1C [Compound 47A]				1560 nM	
C=CC(=O)N1C[C@@H]2C(=O)N(CCN(C)C)c3c(c4cc(F)c(-c5c(F)cccc5OC)c(F)c4n(-c4c(C)ccnc4C(C)C)c3=O)N2C[C@H]1C [Compound 48A-1]				294 nM	
C=CC(=O)N1C[C@]2(CO)C(=O)N(C)c3c(c4cc(F)c(-c5c(O)cccc5F)nc4n(-c4c(C)ccnc4C(C)C)c3=O)N2C[C@H]1C [Compound 51A]				1280 nM	
C=CC(=O)N1C[C@@H]2C(=O)N(CCN(C)C)c3c(c4cc(Cl)c(-c5c(O)cccc5F)c(F)c4n(-c4c(CC)ccnc4C(C)C)c3=O)N2C[C@H]1C [Compound 54A-1]			641 nM		

Continued, in another order:

GI50 ([2]; NCI-H358, 72 hours)	GI50 [3]	SMILES	IC50 [1]	IC50 ([1]; Homo sapiens, NCI-H358, 2 h)	also measured
138 nM	468 nM	C=CC(=O)N1C[C@@H]2COc3c(c4cc(Cl)c(-c5c(O)cccc5F)c(F)c4n(-c4c(C)ccnc4C(C)C)c3=O)N2C[C@H]1C (atropisomer, axis not shown) [Compound 18B]	151 nM		
22 nM	28 nM	C=CC(=O)N1C[C@@H]2C(=O)N(CCN(C)C)c3c(c4cc(Cl)c(-c5c(O)cccc5F)c(F)c4n(-c4c(C)ccnc4C(C)C)c3=O)N2C[C@H]1C (atropisomer, axis not shown) [Compound 26B]	19 nM		
82 nM	79 nM	C=CC(=O)N1C[C@@H]2C(=O)N(CCN(C)C)c3c(c4cc(Cl)c(-c5c(O)cccc5F)c(F)c4n(-c4c(C)ccnc4C(C)C)c3=O)N2C[C@H]1C (atropisomer, axis not shown) [Compound 26D]	68 nM		
85 nM	117 nM	C=CC(=O)N1C[C@@H]2C(=O)N(CCN(C)C)c3c(c4cc(Cl)c(-c5c(F)cccc5OC)c(F)c4n(-c4c(C)ccnc4C(C)C)c3=O)N2C[C@H]1C (atropisomer, axis not shown) [Compound 27D]	124 nM		
